Data published in ChEMBL document CHEMBL5291721, “A preclinical secondary pharmacology resource illuminates target-adverse drug reaction associations of marketed drugs” (Nat Commun, 2023).

How the values were obtained:
Adenosine receptor A2a = Adenosine receptor A2a (Homo sapiens, UniProt P29274)
Endothelin-1 receptor = target: T1, Endothelin-1 receptor (Homo sapiens, UniProt P25101)
T1 sequence (P25101 whole entry): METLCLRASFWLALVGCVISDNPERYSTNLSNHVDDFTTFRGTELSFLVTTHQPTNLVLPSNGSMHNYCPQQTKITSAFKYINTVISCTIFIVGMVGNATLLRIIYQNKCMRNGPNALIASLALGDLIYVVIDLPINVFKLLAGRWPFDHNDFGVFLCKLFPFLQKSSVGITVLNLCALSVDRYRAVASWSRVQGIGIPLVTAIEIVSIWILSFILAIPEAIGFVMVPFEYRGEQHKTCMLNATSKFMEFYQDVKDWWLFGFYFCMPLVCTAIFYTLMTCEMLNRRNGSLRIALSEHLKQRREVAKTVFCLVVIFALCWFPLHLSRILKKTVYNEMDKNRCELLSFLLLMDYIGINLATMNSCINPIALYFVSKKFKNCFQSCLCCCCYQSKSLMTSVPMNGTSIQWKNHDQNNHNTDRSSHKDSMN

[1] = target: 3',5'-cyclic-AMP phosphodiesterase 4D (Homo sapiens, UniProt Q08499); format: functional
Sequence of 3',5'-cyclic-AMP phosphodiesterase 4D (Q08499 whole entry): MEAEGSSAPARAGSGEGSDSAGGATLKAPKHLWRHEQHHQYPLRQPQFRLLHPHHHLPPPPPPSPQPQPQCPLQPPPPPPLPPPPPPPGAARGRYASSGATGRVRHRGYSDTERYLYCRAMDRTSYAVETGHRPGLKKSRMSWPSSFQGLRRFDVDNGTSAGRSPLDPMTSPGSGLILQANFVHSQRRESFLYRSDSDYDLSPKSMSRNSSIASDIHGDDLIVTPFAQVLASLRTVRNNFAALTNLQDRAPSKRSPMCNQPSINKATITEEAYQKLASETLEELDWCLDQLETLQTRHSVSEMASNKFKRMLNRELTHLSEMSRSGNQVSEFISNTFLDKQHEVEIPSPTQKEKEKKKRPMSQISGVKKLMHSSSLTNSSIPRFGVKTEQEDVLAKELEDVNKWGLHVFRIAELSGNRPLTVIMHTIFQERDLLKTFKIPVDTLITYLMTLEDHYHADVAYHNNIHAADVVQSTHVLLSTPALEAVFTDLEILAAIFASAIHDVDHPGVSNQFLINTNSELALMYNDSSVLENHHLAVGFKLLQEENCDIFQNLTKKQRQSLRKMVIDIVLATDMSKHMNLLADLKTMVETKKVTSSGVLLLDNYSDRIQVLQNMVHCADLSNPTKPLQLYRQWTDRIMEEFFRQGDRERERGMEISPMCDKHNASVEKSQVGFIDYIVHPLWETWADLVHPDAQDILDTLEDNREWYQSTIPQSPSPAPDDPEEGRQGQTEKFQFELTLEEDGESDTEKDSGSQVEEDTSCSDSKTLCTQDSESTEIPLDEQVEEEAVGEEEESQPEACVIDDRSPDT

Progesterone receptor = target: T2, Progesterone receptor (Homo sapiens, UniProt P06401); format: functional
T2 sequence (P06401 whole entry): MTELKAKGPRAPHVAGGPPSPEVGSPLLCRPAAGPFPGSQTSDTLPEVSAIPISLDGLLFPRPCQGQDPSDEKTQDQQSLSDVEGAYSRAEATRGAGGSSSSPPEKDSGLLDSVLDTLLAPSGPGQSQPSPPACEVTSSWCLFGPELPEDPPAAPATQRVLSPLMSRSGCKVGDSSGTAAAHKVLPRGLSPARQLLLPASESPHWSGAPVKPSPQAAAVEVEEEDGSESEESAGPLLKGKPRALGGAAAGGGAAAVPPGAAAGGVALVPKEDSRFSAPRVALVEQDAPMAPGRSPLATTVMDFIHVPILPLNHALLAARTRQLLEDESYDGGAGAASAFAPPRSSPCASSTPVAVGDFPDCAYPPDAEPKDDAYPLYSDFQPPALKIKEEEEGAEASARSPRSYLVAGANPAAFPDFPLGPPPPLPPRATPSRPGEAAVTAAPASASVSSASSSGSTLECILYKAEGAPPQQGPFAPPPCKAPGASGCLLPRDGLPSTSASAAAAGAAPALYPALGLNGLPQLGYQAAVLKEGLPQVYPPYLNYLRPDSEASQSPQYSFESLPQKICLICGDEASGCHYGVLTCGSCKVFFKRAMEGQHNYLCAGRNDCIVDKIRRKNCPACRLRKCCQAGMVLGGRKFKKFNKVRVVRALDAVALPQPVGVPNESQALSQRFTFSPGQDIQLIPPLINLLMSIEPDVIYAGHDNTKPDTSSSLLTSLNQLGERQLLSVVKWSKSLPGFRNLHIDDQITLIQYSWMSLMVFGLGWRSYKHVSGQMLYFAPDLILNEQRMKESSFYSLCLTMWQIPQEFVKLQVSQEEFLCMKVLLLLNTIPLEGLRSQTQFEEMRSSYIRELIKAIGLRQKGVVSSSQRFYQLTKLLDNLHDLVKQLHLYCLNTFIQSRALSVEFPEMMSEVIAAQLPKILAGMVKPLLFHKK

Histamine H3 receptor = Histamine H3 receptor (Homo sapiens, UniProt Q9Y5N1)
Sequence of Histamine H3 receptor (Q9Y5N1 whole entry): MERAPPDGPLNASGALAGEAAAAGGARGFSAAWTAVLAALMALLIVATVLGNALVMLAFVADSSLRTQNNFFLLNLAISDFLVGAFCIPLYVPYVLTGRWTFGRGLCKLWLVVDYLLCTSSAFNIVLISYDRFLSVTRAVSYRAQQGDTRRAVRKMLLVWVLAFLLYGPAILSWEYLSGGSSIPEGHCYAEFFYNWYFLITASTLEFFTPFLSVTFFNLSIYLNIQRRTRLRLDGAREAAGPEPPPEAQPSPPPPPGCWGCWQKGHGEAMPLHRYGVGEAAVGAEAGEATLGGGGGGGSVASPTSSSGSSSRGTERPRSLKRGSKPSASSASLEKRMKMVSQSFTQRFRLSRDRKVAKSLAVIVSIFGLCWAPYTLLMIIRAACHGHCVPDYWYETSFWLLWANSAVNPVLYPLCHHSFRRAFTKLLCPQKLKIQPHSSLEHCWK

[2] = target: T3, Alpha-2A adrenergic receptor (Homo sapiens, UniProt P08913)
T3 sequence (P08913 whole entry): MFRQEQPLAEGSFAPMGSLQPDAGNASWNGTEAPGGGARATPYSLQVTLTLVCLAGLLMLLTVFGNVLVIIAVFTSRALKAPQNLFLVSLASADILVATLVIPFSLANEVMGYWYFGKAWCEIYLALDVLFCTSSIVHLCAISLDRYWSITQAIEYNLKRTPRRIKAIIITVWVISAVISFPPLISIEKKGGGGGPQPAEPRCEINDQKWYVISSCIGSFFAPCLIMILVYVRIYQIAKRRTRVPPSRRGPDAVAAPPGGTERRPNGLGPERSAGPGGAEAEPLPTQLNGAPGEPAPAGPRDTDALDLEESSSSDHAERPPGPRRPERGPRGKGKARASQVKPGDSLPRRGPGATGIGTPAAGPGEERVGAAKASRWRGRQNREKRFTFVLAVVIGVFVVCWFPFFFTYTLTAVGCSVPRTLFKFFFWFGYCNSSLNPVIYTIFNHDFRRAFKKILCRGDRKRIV

[3] = target: Prostaglandin G/H synthase 1 (Homo sapiens, UniProt P23219); format: functional
Sequence of Prostaglandin G/H synthase 1 (P23219 whole entry): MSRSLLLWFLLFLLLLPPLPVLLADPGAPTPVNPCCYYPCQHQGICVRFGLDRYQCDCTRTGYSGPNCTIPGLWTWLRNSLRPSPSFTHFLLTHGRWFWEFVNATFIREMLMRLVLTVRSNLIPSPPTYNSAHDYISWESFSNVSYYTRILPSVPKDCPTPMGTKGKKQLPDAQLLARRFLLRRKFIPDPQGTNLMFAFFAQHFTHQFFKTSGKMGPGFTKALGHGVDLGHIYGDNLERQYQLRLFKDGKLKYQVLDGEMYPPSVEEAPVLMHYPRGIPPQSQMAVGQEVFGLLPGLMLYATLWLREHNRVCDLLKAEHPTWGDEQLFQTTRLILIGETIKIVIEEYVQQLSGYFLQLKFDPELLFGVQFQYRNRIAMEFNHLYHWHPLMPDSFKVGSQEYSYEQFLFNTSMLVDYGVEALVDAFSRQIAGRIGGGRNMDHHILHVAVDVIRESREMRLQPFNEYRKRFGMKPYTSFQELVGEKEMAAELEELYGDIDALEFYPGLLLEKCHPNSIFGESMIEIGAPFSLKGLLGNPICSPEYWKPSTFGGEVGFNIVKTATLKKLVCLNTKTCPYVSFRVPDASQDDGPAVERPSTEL

Thromboxane A2 receptor = target: T4, Thromboxane A2 receptor (Homo sapiens, UniProt P21731); format: functional, cell-based
T4 sequence (P21731 whole entry): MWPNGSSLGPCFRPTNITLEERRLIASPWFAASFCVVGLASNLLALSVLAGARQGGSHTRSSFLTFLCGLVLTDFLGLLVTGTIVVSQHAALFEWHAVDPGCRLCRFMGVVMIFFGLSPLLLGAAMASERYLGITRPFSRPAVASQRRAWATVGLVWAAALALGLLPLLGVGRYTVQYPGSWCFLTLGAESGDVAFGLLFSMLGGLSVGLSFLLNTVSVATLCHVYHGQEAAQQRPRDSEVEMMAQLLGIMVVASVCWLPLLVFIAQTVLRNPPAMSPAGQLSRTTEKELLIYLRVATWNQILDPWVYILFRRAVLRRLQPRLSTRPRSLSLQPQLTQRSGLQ

B2 bradykinin receptor = target: T5, B2 bradykinin receptor (Homo sapiens, UniProt P30411)
T5 sequence (P30411 whole entry): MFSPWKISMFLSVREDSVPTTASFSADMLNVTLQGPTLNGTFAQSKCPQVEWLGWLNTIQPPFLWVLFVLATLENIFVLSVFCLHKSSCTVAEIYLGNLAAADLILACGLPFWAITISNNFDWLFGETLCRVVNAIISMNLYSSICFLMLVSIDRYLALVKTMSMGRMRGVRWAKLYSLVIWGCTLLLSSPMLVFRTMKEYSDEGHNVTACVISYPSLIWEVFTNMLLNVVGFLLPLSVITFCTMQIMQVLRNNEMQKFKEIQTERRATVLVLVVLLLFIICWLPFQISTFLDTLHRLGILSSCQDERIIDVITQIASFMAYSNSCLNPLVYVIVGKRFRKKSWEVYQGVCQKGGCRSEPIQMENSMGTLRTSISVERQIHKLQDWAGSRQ
Note: assay procedure not described here.

Sequence of Adenosine receptor A2a (P29274 whole entry): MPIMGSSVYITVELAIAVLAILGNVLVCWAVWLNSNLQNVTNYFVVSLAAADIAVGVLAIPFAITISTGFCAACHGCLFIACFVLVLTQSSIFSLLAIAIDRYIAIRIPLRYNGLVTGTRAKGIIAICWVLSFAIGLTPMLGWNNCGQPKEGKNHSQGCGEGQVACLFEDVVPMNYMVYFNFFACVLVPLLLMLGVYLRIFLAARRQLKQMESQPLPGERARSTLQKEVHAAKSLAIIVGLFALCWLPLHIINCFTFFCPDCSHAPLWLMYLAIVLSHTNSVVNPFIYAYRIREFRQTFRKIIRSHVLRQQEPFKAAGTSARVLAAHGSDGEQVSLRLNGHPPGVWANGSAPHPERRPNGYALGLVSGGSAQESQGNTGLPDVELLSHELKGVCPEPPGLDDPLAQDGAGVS

SMILES	AC50 (Adenosine receptor A2a)	AC50 (Endothelin-1 receptor)	AC50 [1]	AC50 (Progesterone receptor)	AC50 (Histamine H3 receptor)	AC50 [2]	AC50 [3]	AC50 (Thromboxane A2 receptor)	AC50 (B2 bradykinin receptor)
CC(=N)N1CC[C@H](SC2=C(C(=O)O)N3C(=O)[C@H]([C@@H](C)O)[C@H]3C2)C1	300 µM	> 300 µM	> 300 µM	> 300 µM	> 300 µM	–	–	–	–
CN(C)CCCN1C(=O)c2cc([N+](=O)[O-])ccc2Oc2ccccc21	–	–	–	–	–	28.4 µM	29.6 µM	> 30 µM	–
O=S(=O)(O)CCS [2-MERCAPTOETHANESULFONIC ACID]	–	–	–	–	–	> 30 µM	0.486 µM	> 30 µM	–
O=C1CN2Cc3c(ccc(Cl)c3Cl)N=C2N1 [ANAGRELIDE]	> 30 µM	–	> 30 µM	–	> 10 µM	–	–	–	> 30 µM
O=C(O)COc1nn(Cc2ccccc2)c2ccccc12 [BENDAZAC]	–	–	–	–	–	> 30 µM	> 30 µM	> 30 µM	–
C=C(C)[C@@H]1CCC(C)=C[C@H]1c1c(O)cc(CCCCC)cc1O [CANNABIDIOL]	> 30 µM	> 30 µM	> 30 µM	> 30 µM	26 µM	–	–	–	–
CO/N=C(\C(=O)N[C@@H]1C(=O)N2C(C(=O)O)=C(COC(N)=O)CS[C@H]12)c1ccco1 [CEFUROXIME]	> 30 µM	> 30 µM	> 30 µM	–	> 30 µM	–	–	–	> 30 µM
O=C(O)CCCc1ccc(N(CCCl)CCCl)cc1 [CHLORAMBUCIL]	–	–	–	–	–	> 30 µM	> 30 µM	> 30 µM	–
[H]/N=C(\N/C(=N/[H])NCCCCCCNC(=N)NC(=N)Nc1ccc(Cl)cc1)Nc1ccc(Cl)cc1 [CHLORHEXIDINE]	> 30 µM	–	> 10 µM	> 30 µM	–	–	–	–	–
Clc1cccc(Cl)c1N=C1NCCN1 [CLONIDINE]	> 30 µM	> 30 µM	> 30 µM	–	> 10 µM	–	–	–	> 30 µM
CN(CC(=O)O)C(=N)N [CREATINE]	–	–	–	–	–	> 30 µM	> 30 µM	> 30 µM	–
CN1C[C@H](C(=O)N[C@]2(C)O[C@@]3(O)[C@@H]4CCCN4C(=O)[C@H](Cc4ccccc4)N3C2=O)C[C@@H]2c3cccc4[nH]cc(c34)C[C@H]21 [DIHYDROERGOTAMINE]	> 30 µM	> 30 µM	6.7 µM	–	> 10 µM	–	–	–	> 30 µM
CNCC[C@H](Oc1cccc2ccccc12)c1cccs1 [DULOXETINE]	> 30 µM	–	–	–	–	–	–	–	> 30 µM
Cn1c(=O)c2c(ncn2CC(O)CO)n(C)c1=O (stereo unspecified) [DYPHYLLINE]	–	–	–	–	–	> 30 µM	> 30 µM	> 30 µM	–
CC1(C)O[C@@H]2C[C@H]3[C@@H]4C[C@H](F)C5=CC(=O)C=C[C@]5(C)[C@H]4[C@@H](O)C[C@]3(C)[C@]2(C(=O)CO)O1 [FLUNISOLIDE]	> 30 µM	> 30 µM	> 30 µM	0.64 µM	> 30 µM	–	–	–	–
Cc1cnc(NC(=O)C2=C(O)c3ccccc3S(=O)(=O)N2C)s1 [MELOXICAM]	> 30 µM	13.4 µM	> 10 µM	–	> 10 µM	–	–	–	> 30 µM

SMILES	AC50 (Adenosine receptor A2a)	AC50 (Endothelin-1 receptor)	AC50 [1]	AC50 (Progesterone receptor)	AC50 (Histamine H3 receptor)	AC50 [2]	AC50 [3]	AC50 (Thromboxane A2 receptor)	AC50 (B2 bradykinin receptor)
Cc1cc2c(OCC(O)CNC(C)C)cccc2[nH]1 (stereo unspecified) [MEPINDOLOL]	–	–	–	–	–	12.3 µM	15.2 µM	> 30 µM	–
CCOc1cc(N)c(Cl)cc1C(=O)NCC1CN(Cc2ccc(F)cc2)CCO1 (stereo unspecified) [MOSAPRIDE]	–	–	–	–	–	3.01 µM	> 30 µM	> 30 µM	–
CCOc1ccc2ccccc2c1C(=O)N[C@@H]1C(=O)N2[C@@H]1SC(C)(C)[C@@H]2C(=O)O [NAFCILLIN]	–	–	–	–	–	> 30 µM	> 30 µM	> 30 µM	–
CN1CCC[C@H]1c1cccnc1 [NICOTINE]	–	–	–	–	–	> 30 µM	22 µM	> 30 µM	–
CCCCCCCCCCC[C@@H](C[C@@H]1OC(=O)[C@H]1CCCCCC)OC(=O)[C@H](CC(C)C)NC=O [ORLISTAT]	–	–	–	–	–	> 30 µM	> 30 µM	> 30 µM	–
COc1ccnc(C[S+]([O-])c2nc3ccc(OC(F)F)cc3[nH]2)c1OC (stereo unspecified) [PANTOPRAZOLE]	> 30 µM	> 30 µM	> 30 µM	–	> 10 µM	–	–	–	> 30 µM
O=C1[C@H]2CCCC[C@H]2C(=O)N1CCCCN1CCN(c2nsc3ccccc23)CC1 [PEROSPIRONE]	–	–	–	–	–	0.22 µM	> 30 µM	> 30 µM	–
CN(C)CCC(c1ccccc1)c1ccccn1 (stereo unspecified) [PHENIRAMINE]	–	–	–	–	–	> 30 µM	> 30 µM	> 30 µM	–
CC(C)(C)C(=O)NCCCC(=O)O [PIVAGABINE]	–	–	–	–	–	> 30 µM	> 30 µM	> 30 µM	–
CC(C)[N+](C)(CCOC(=O)C1c2ccccc2Oc2ccccc21)C(C)C [PROPANTHELINE]	–	–	–	–	–	> 30 µM	> 30 µM	> 30 µM	–
NC(=O)c1ncn([C@@H]2O[C@H](CO)[C@@H](O)[C@H]2O)n1 [RIBAVIRIN]	> 10 µM	–	> 30 µM	> 10 µM	> 10 µM	–	–	–	> 10 µM
CN(C)C(=O)c1nc(CNC(=O)CN)n(-c2ccc(Cl)cc2C(=O)c2ccccc2Cl)n1 [RILMAZAFONE]	–	–	–	–	–	> 30 µM	13.5 µM	> 30 µM	–
CC(=O)S[C@@H]1CC2=CC(=O)CC[C@]2(C)[C@H]2CC[C@@]3(C)[C@@H](CC[C@@]34CCC(=O)O4)[C@H]12 [SPIRONOLACTONE]	> 30 µM	> 30 µM	> 30 µM	–	> 30 µM	–	–	–	> 30 µM
NC(=O)NS(=O)(=O)c1ccc(N)cc1 [SULFACARBAMIDE]	–	–	–	–	–	> 30 µM	> 30 µM	> 30 µM	–
CCCCCCCCNC(C)C(O)c1ccc(SC(C)C)cc1 (stereo unspecified) [SULOCTIDIL]	–	–	–	–	–	6.75 µM	> 30 µM	> 10 µM	–
CCCCCCCCCCCCCCCC(=O)OC/C=C(C)/C=C/C=C(C)/C=C/C1=C(C)CCCC1(C)C [VITAMIN A PALMITATE]	–	–	–	–	–	> 30 µM	> 30 µM	> 30 µM	–
